From ChEMBL document CHEMBL1157533 (J Med Chem, 2008)
pEC50: −log10 of the molar value. Each block holds one compound with its values, some of them ahead of it.

What was measured:
[1] = target: Beta-1 adrenergic receptor (Homo sapiens, UniProt P08588); test: Agonist activity at human recombinant beta-1 adrenergic receptor expressed in CHO cells assessed as cAMP accumulation by enzyme immuno assay; format: functional, cell-based
[2] = Total clearance in monkey at 0.30 mg/kg, iv by cassette assay; format: ADME, organism-based, Macaca mulatta; design: dose 0.3 mg/kg, route intravenous; conditions: rhesus monkey, in vivo, 0.3 mg/kg
[3] = Total clearance in dog at 0.1 mg/kg, iv; format: ADME, organism-based, Canis lupus familiaris; design: dose 0.1 mg/kg, route intravenous; conditions: in vivo
[4] = Cmax in monkey at 0.30 mg/kg, po by cassette assay; format: ADME, organism-based, Macaca mulatta; design: dose 0.3 mg/kg, route oral; conditions: rhesus monkey, in vivo, 0.3 mg/kg
[5] = AUC (0 to 24 hrs) in dog at 0.1 mg/kg, po; format: ADME, organism-based, Canis lupus familiaris; design: time < 24 hr, dose 0.1 mg/kg, route oral; conditions: plasma
[6] = Cmax in dog at 0.1 mg/kg, po; format: ADME, organism-based, Canis lupus familiaris; design: dose 0.1 mg/kg, route oral; conditions: in vivo
[7] = Protein binding in Beagle dog serum; format: ADME, cell-free, Canis lupus familiaris; conditions: read-out: PPB (converted)
Canis familiaris = species: Canis familiaris; test: cells; conditions: Canis lupus familiaris, 3 h
Description: Inhibition of carbachol-induced increase in intravesical pressure in intraduodenally dosed Beagle dog OAB model for 180 mins

[8] = Bioavailability in dog at 0.1 mg/kg, po; format: ADME, organism-based, Canis lupus familiaris; conditions: in vivo
[9] = target: Beta-2 adrenergic receptor (Homo sapiens, UniProt P07550); test: Agonist activity at human recombinant beta2 adrenergic receptor expressed in CHO cells assessed as cAMP accumulation by enzyme immuno assay; format: functional, cell-based
[10] = AUC (0 to 24 hrs) in monkey at 0.30 mg/kg, po by cassette assay; format: ADME, organism-based, Macaca mulatta; design: time < 24 hr, dose 0.3 mg/kg, route oral; conditions: rhesus monkey, plasma, 0.3 mg/kg
[11] = Bioavailability in monkey at 0.30 mg/kg, po by cassette assay; format: ADME, organism-based, Macaca mulatta; conditions: rhesus monkey, in vivo, 0.3 mg/kg
[12] = target: Beta-3 adrenergic receptor (Homo sapiens, UniProt P13945); test: Agonist activity at human recombinant beta3 adrenergic receptor expressed in CHO cells assessed as cAMP accumulation by enzyme immuno assay; format: functional, cell-based
[13] = target: Beta-3 adrenergic receptor (Canis lupus familiaris, UniProt O02662); test: Agonist activity at dog recombinant beta3 adrenergic receptor expressed in CHO cells assessed as cAMP accumulation by enzyme immuno assay; format: functional, cell-based
[14] = Terminal half life in rat plasma at 1.0 mg/kg, iv; format: ADME, organism-based; design: dose 1 mg/kg, route intravenous; conditions: read-out: beta t1/2 (converted)
[15] = Terminal half life in monkey plasma at 0.27 mg/kg, iv by cassette assay; format: ADME, organism-based, Macaca mulatta; design: dose 0.27 mg/kg, route intravenous; conditions: rhesus monkey, read-out: beta t1/2 (converted)
[16] = AUC (0 to 24 hrs) in dog at 0.32 mg/kg, po; format: ADME, organism-based, Canis lupus familiaris; design: time < 24 hr, dose 0.32 mg/kg, route oral; conditions: plasma
[17] = Bioavailability in dog at 0.32 mg/kg, po; format: ADME, organism-based, Canis lupus familiaris; conditions: in vivo
[18] = Cmax in monkey at 0.27 mg/kg, po by cassette assay; format: ADME, organism-based, Macaca mulatta; design: dose 0.27 mg/kg, route oral; conditions: rhesus monkey, in vivo
[19] = AUC (0 to 24 hrs) in monkey at 0.27 mg/kg, po by cassette assay; format: ADME, organism-based, Macaca mulatta; design: time < 24 hr, dose 0.27 mg/kg, route oral; conditions: rhesus monkey, plasma
[20] = Total clearance in dog at 0.32 mg/kg, iv; format: ADME, organism-based, Canis lupus familiaris; design: dose 0.32 mg/kg, route intravenous; conditions: in vivo
[21] = Terminal half life in dog plasma at 0.32 mg/kg, iv; format: ADME, organism-based, Canis lupus familiaris; design: dose 0.32 mg/kg, route intravenous; conditions: read-out: beta t1/2 (converted)
[22] = Total clearance in monkey at 0.27 mg/kg, iv by cassette assay; format: ADME, organism-based, Macaca mulatta; design: dose 0.27 mg/kg, route intravenous; conditions: rhesus monkey, in vivo
[23] = Bioavailability in rat at 1.0 mg/kg, po; format: ADME, organism-based; conditions: in vivo
[24] = Total clearance in rat at 1.0 mg/kg, iv; format: ADME, organism-based; design: dose 1 mg/kg, route intravenous; conditions: in vivo
[25] = Cmax in rat at 1.0 mg/kg, po; format: ADME, organism-based; design: dose 1 mg/kg, route oral; conditions: in vivo
[26] = AUC (0 to 24 hrs) in rat at 1.0 mg/kg, po; format: ADME, organism-based; design: time < 24 hr, dose 1 mg/kg, route oral; conditions: plasma
[27] = Bioavailability in monkey at 0.27 mg/kg, po by cassette assay; format: ADME, organism-based, Macaca mulatta; conditions: rhesus monkey, in vivo
[28] = Cmax in dog at 0.32 mg/kg, po; format: ADME, organism-based, Canis lupus familiaris; design: dose 0.32 mg/kg, route oral; conditions: in vivo

Chain of Beta-3 adrenergic receptor (Homo sapiens, UniProt P13945) (P13945 whole entry): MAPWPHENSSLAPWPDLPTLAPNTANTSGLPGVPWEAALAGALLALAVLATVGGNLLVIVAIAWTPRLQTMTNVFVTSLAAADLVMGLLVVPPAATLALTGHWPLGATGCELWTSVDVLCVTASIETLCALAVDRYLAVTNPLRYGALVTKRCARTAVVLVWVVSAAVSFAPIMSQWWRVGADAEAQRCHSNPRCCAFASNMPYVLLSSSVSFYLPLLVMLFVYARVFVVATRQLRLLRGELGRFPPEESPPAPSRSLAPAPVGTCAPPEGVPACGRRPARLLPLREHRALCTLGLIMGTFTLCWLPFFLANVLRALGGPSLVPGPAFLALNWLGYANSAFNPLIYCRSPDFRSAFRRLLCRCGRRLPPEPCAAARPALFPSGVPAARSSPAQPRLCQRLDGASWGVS
Chain of Beta-2 adrenergic receptor (P07550 whole entry): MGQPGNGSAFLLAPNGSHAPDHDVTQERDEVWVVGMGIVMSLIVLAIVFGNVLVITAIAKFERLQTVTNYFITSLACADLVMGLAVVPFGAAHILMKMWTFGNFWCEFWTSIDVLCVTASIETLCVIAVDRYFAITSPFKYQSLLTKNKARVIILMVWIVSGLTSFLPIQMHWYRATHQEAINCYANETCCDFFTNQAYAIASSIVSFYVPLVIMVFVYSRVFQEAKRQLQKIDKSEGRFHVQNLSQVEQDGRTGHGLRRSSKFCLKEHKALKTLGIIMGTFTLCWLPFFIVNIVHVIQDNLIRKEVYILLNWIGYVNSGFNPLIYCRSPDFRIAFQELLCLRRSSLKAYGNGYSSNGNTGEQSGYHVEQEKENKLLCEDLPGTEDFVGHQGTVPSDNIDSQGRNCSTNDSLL
Chain of Beta-3 adrenergic receptor (Canis lupus familiaris, UniProt O02662) (O02662 whole entry): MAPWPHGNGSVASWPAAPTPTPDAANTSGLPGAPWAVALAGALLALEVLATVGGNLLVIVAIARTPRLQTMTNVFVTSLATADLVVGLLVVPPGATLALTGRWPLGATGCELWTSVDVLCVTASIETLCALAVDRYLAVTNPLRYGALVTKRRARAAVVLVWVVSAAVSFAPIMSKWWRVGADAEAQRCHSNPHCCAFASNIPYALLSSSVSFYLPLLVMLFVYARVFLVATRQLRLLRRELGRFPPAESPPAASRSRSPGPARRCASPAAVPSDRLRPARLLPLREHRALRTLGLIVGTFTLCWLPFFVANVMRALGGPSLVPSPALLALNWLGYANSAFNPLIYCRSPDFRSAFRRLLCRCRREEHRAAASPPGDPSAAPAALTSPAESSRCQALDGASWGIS
Chain of Beta-1 adrenergic receptor (P08588 whole entry): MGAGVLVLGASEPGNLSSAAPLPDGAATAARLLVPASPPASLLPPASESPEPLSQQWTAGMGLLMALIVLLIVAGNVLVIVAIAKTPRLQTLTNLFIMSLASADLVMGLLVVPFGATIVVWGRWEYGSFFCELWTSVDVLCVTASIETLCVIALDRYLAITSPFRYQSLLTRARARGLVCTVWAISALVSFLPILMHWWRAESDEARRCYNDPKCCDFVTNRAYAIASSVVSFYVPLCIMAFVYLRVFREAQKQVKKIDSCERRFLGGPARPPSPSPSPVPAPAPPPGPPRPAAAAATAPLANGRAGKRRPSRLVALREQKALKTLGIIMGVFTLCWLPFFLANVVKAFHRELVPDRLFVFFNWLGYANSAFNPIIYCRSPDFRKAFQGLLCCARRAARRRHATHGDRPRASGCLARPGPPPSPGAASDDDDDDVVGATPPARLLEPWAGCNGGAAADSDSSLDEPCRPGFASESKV

Structure (SMILES): CCCOc1cc(-c2ccc(C[C@@H](C)NC[C@H](O)c3cccnc3)cc2)ccc1C(=O)O
pEC50 [1]: 6.72
clearance [2]: 47 mL/min/kg
clearance [3]: 24.3 mL/min/kg
Cmax [4]: 8.2 ng/mL
AUC(0-t) at 24 h [5]: 35.5 ng·h/mL
Cmax [6]: 3 ng/mL
fraction unbound [7]: 0.18
pEC50 (Canis familiaris): 9.55
ED50 (Canis familiaris): 0.0048 mg/kg
bioavailability [8]: 54.9%
pEC50 [9]: < 6.00
AUC(0-t) at 24 h [10]: 65.2 ng·h/mL
bioavailability [11]: 57.2%
pEC50 [12]: 10.19
pEC50 [13]: 9.29

half-life [14]: 3.5 h
half-life [15]: 2.2 h
pEC50 [1]: < 6.00
AUC(0-t) at 24 h [16]: 461 ng·h/mL
bioavailability [17]: 63.2%
Cmax [18]: 11 ng/mL
fraction unbound [7]: 0.23
AUC(0-t) at 24 h [19]: 77.5 ng·h/mL
clearance [20]: 6.4 mL/min/kg
half-life [21]: 9.9 h
clearance [22]: 22.8 mL/min/kg
pEC50 (Canis familiaris): 8.11
bioavailability [23]: 61.5%
clearance [24]: 16 mL/min/kg
Cmax [25]: 172 ng/mL
pEC50 [9]: < 5.00
AUC(0-t) at 24 h [26]: 548 ng·h/mL
bioavailability [27]: 25.7%
pEC50 [12]: 8.82
pEC50 [13]: 7.96
Cmax [28]: 27 ng/mL
Structure (SMILES): CC(C)Oc1cc(-c2ccc(CCNC[C@H](O)c3cccnc3)cc2)ccc1C(=O)O
ED50 (Canis familiaris): 0.0284 mg/kg
